Laboratory results as given in patent publication US10407388B2, “Thiourea derivatives as activators of RORα and pharmaceutical composition containing same” (SEOUL NATIONAL UNIVERSITY R & DB FOUNDATION, priority 2011, dated 2019).

What follows are molecules tested against T1, RORα (Homo sapiens, UniProt P35398) (assay: Transcriptional activity of RORα, RORE-tk-Luc reporter in CV-1 cells (Experimental Example 1)). Details: JC1 compounds 100 μM, 24 hours; luciferase activity standardized by β-gal; versus control treated only with solvent.
T1 construct: expressed in transfected cells; host or cells: CV-1 cells (ATCC CCL-70)
T1 sequence (P35398 1-523): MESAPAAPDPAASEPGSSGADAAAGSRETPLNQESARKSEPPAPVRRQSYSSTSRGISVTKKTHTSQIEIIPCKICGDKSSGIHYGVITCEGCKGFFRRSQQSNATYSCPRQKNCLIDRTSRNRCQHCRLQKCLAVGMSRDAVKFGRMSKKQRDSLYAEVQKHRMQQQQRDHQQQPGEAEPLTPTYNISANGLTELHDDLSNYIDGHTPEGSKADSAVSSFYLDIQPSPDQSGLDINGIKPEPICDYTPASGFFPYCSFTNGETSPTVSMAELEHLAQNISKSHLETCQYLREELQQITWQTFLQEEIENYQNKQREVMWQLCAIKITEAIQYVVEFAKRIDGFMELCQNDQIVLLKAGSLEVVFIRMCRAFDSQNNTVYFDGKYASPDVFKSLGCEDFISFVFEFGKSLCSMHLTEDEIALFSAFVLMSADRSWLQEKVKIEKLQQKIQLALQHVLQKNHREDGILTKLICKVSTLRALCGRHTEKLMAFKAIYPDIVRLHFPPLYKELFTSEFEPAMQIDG
Type: cell-based
Experimental: CV-1 cells (CCL-70) were purchased from American Type Culture Collection (ATCC). The CV-1 cells (4×10^4 cells/well) were seeded on a 24-well culture plate and cultured overnight in a Dulbecco's Modified Eagle's Medium (DMEM) containing 10% fetal bovine serum (FBS). The CV-1 cells were maintained at 37° C. in a humidification thermostat containing 5% CO2 and 95% air. After culturing, the cells were transformed with RORE-tk-Luc reporter plasmid (100 ng) and ROR expression vector (5 ng) using calcium phosphate. […]

Going from `CNC(=S)NCc1ccccc1Br` [Compound 1, 1-(2-bromo-benzyl)-3-methyl-thiourea] to `CNC(=S)NCc1ccccc1C` [Compound 7, 1-(2-methyl-benzyl)-3-methyl-thiourea], the “Fold Activation” value falls from 3.4 to 0.7.

Compared with `CNC(=S)NCc1ccc(Br)cc1` [Compound 2, 1-(4-bromo-benzyl)-3-methyl-thiourea], `CNC(=S)NCc1ccc(Cl)cc1` [Compound 3, 1-(4-chloro-benzyl)-3-methyl-thiourea] is higher in “Fold Activation” value: 1.4 for the first, 2.6 for the second.

Compared with `CNC(=S)NCc1ccc(OC)cc1` [Compound 4, 1-(4-methoxy-benzyl)-3-methyl-thiourea], `CNC(=S)NCc1ccc(C)cc1` [Compound 14, 1-(4-methyl-benzyl)-3-methyl-thiourea] is higher in “Fold Activation” value: 3.4 for the first, 3.9 for the second.

Going from `CNC(=S)NCc1ccc(OC)cc1OC` [Compound 5, 1-(2,4-dimethoxy-benzyl)-3-methyl-thiourea] to `CNC(=S)NCc1cccc(OC)c1OC` [Compound 15, 1-(2,3-dimethoxy-benzyl)-3-methyl-thiourea], the “Fold Activation” value rises from 1.1 to 1.5.

First: CNC(=S)NCc1cccc(C)c1 [Compound 6, 1-(3-methyl-benzyl)-3-methyl-thiourea]
Second: CNC(=S)NCc1cccc(Cl)c1 [Compound 28, 1-(3-chloro-benzyl)-3-methyl-thiourea]
The “Fold Activation” value of the first is higher: 1.1 for the first, 0.7 for the second.

First: CNC(=S)NCc1ccc2c(c1)OCO2 [Compound 8, 1-(benzo[1,3]dioxyl-5-methyl)-3-methyl-thiourea]
Second: CNC(=S)NCc1ccc(O)c(O)c1 [Compound 22, 1-(3,4-dihydroxy-benzyl)-3-methyl-thiourea]
The “Fold Activation” value of the first is higher: 1.7 for the first, 0.6 for the second.

Going from `CNC(=S)NCc1ccc(O)c(OC)c1` [Compound 9, 1-(4-hydroxy-3-methoxy-benzyl)-3-methyl-thiourea] to `CNC(=S)NCc1ccc(OC)c(O)c1` [Compound 25, 1-(3-hydroxy-4-methoxy-benzyl)-3-methyl-thiourea], the “Fold Activation” value rises from 1.4 to 1.9.

Going from `CNC(=S)NCc1ccc(N(C)C)cc1` [Compound 10, 1-(4-dimethylamino-benzyl)-3-methyl-thiourea] to `CNC(=S)NCc1ccc(F)cc1` [Compound 30, 1-(4-fluoro-benzyl)-3-methyl-thiourea], the “Fold Activation” value rises from 1.3 to 2.5.

First: CNC(=S)NCc1ccc(C(F)(F)F)cc1 [Compound 11, 1-(4-trifluoromethyl-benzyl)-3-methyl-thiourea]
Second: CNC(=S)NCc1ccc(C(C)(C)C)cc1 [Compound 13, 1-(4-t-butyl-benzyl)-3-methyl-thiourea]
The “Fold Activation” value of the first is higher: 2.3 for the first, 0.9 for the second.

First: CNC(=S)NCc1ccc([N+](=O)[O-])cc1 [Compound 12, 1-(4-nitro-benzyl)-3-methyl-thiourea]
Second: CNC(=S)NCc1cccc([N+](=O)[O-])c1 [Compound 17, 1-(3-nitro-benzyl)-3-methyl-thiourea]
The “Fold Activation” value of the first is higher: 1.6 for the first, 0.9 for the second.

Going from `CCOc1ccccc1CNC(=S)NC` [Compound 16, 1-(2-ethoxy-benzyl)-3-methyl-thiourea] to `C=CCOc1ccccc1CNC(=S)NC` [Compound 39, 1-(2-allyloxy-benzyl)-3-methyl-thiourea], the “Fold Activation” value rises from 1.4 to 1.8.

First: CNC(=S)NCc1ccccc1[N+](=O)[O-] [Compound 18, 1-(2-nitro-benzyl)-3-methyl-thiourea]
Second: CNC(=S)NCc1ccccc1Cl [Compound 34, 1-(2-chloro-benzyl)-3-methyl-thiourea]
The “Fold Activation” value of the first is higher: 2.1 for the first, 0.8 for the second.

Compared with `CNC(=S)NCc1cc(OC)c(OC)c(OC)c1` [Compound 19, 1-(3,4,5-trimethoxy-benzyl)-3-methyl-thiourea], `CNC(=S)NCc1cc(OC)cc(OC)c1` [Compound 20, 1-(3,5-dimethoxy-benzyl)-3-methyl-thiourea] is lower in “Fold Activation” value: 2.2 for the first, 1.0 for the second.

Going from `CNC(=S)NCc1ccc(Cl)cc1Cl` [Compound 21, 1-(2,4-dichloro-benzyl)-3-methyl-thiourea] to `CNC(=S)NCc1cccc(Cl)c1Cl` [Compound 33, 1-(2,3-dichloro-benzyl)-3-methyl-thiourea], the “Fold Activation” value rises from 0.6 to 0.7.

Going from `CNC(=S)NCc1ccc(OC)cc1OC` [Compound 23, 1-(2,4-dimethoxy-benzyl)-3-methyl-thiourea] to `CNC(=S)NCc1ccc(F)cc1F` [Compound 32, 1-(2,4-difluoro-benzyl)-3-methyl-thiourea], the “Fold Activation” value falls from 2.9 to 0.9.

Going from `CNC(=S)NCc1ccc(-c2ccccc2)cc1` [Compound 24, 1-(4-phenyl-benzyl)-3-methyl-thiourea] to `CCOc1cc(-c2ccccc2)ccc1CNC(=S)NC` [Compound 44, 1-(3-ethoxy-biphenyl-4-methyl)-3-methyl-thiourea], the “Fold Activation” value rises from 0.2 to 1.2.

Going from `CNC(=S)NCc1ccc(Cl)c(Cl)c1` [Compound 27, 1-(3,4-dichloro-benzyl)-3-methyl-thiourea] to `CNC(=S)NCc1ccc(F)c(F)c1` [Compound 31, 1-(3,4-difluoro-benzyl)-3-methyl-thiourea], the “Fold Activation” value falls from 1.0 to 0.8.

Compared with `CNC(=S)NCc1cccc(F)c1` [Compound 29, 1-(3-fluoro-benzyl)-3-methyl-thiourea], `CNC(=S)NCc1ccc2ccccc2c1` [Compound 43, 1-methyl-3-naphthalene-2-methyl-thiourea] is lower in “Fold Activation” value: 1.1 for the first, 0.7 for the second.

Compared with `CNC(=S)N[C@H](C)c1ccc(OC)cc1` [Compound 35, R-(+)-1-[1-(4-methoxy-phenyl)-ethyl]-3-methyl-thiourea], `CNC(=S)N[C@@H](C)c1ccc(OC)cc1` [Compound 36, S-(−)-1-[1-(4-methoxy-phenyl)-ethyl]-3-methyl-thiourea] is lower in “Fold Activation” value: 0.7 for the first, 0.6 for the second.

Compared with `CNC(=S)NCc1ccc(OC)c(OCc2ccccc2)c1` [Compound 41, 1-(3-benzyloxy-4-methoxy-benzyl)-3-methyl-thiourea], `CCOc1cc(C=Cc2ccccc2)ccc1CNC(=S)NC` [Compound 47, 1-(2-ethoxy-4-styryl-benzyl)-3-methyl-thiourea] is lower in “Fold Activation” value: 2.5 for the first, 1.2 for the second.

`CCOc1cc(-c2ccc(C(C)(C)C)cc2)ccc1CNC(N)=S` [Compound 45, (4′-tert-butyl-3-ethoxy-biphenyl-4-methyl)-thiourea] and `CCOc1cc(-c2ccc(C(F)(F)F)cc2)ccc1CNC(=S)NC` [Compound 48, 1-(3-ethoxy-4′-trifluoromethyl-biphenyl-4-methyl)-3-methyl-thiourea] are the same in “Fold Activation” value: 1.0 for the first, 1.0 for the second.

Going from `CNC(=S)NCc1ccccc1Oc1ccccc1` [Compound 51, 1-methyl-3-(2-phenoxy-benzyl)-thiourea] to `CNC(=S)NCc1ccc(Oc2ccc(F)cc2)cc1` [Compound 52, 1-[4-(4-fluoro-phenoxy)-benzyl]-3-methyl-thiourea], the “Fold Activation” value rises from 1.3 to 1.5.

With `CNC(=S)NCc1ccc(Oc2ccc(OC)cc2)cc1` [Compound 53, 1-[4-(4-methoxy-phenoxy)-benzyl]-3-methyl-thiourea] the “Fold Activation” value was 2.1.
